Data on eleven compounds can be found in publication PMC9694579 (Microorganisms, 2022).

The test system of data set [1] is YFV. Description: microbe, parasite or virus in culture. The data set is classed as cell-based, Yellow fever virus strain 17D. The following applies: for EC50: read-out: Anti-YFV Activity (Huh-7) EC50; for EC90: read-out: Anti-YFV Activity (Huh-7) EC90.
Data set [2] in a line: in vitro. The following applies: human.
Data set [3] in a line: in vitro. The following applies: African green monkey.
Data set [4] is described as follows: in vitro. The following applies: human; for CC50: Cytotoxicity CC50 Huh-7.
Data set [5] in a line: in vitro. The following applies: human. The source holds these as a separate data set.
Data set [6] has as its system Huh-7 cells. The following applies: human.
Data set [7] has as its system primary human hepatocytes.
The subject of data set [8] is YFV. Description: microbe, parasite or virus in culture. The following applies: Yellow fever virus, RD, read-out: EC50, inhibition of YFV replication in RD cells. The data set is classed as cell-based.
For data set [9], the system named is YFV. The following applies: cited from earlier work.
Data set [10] concerns YFV 17D. The following applies: mouse, in vivo.
Data set [11] deals with Huh-7 cells. The following applies: cited from earlier work.
A short description of data set [12]: in vitro. The following applies: human. This is another data set of the same source.
Data set [13] relates to primary human hepatocytes. The following applies: cited from earlier work.
The subject of data set [14] is MDM. The following applies: human.
Data set [15] has as its system YFV. Description: microbe, parasite or virus in culture. The data set is classed as cell-based, Yellow fever virus strain 17D. The following applies: Yellow fever virus, Huh-7, 72 h, read-out: EC50 in 3D cultures.
The subject of data set [16] is YFV. Description: microbe, parasite or virus in culture. It counts as cell-based, Yellow fever virus strain 17D. The following applies: Yellow fever virus, Macrophage; for EC50: read-out: EC50, YFV replication in MDM.
The subject of data set [17] is YFV. The following applies: mouse, in vivo; cited from earlier work.
The subject of data set [18] is Huh-7 cells. The following applies: human. The source holds these as a separate data set.
Setting [19] is: Yellow fever virus, Huh-7, 72 h.

Where two headings read alike, the source gives them in different places.

For orientation: EC50 means the concentration needed to bring the measured effect to its halfway point. Usually EC90 stands for the point of the concentration-response curve where the effect stands at 90%. `O=c1ccn([C@@H]2O[C@H](CO)[C@@H](O)C2(Cl)Cl)c(=O)[nH]1` [Compound 2]: the EC50 in [1] (setting [19]) was more than 10 µM. The concentration for an effect of 90% (EC90) in data set [1] (setting [19]) was more than 10 µM. For the same compound, the CC50 in data set [2], in [3], in [4] and in data set [5] was more than 100 µM throughout. Further, in data set [6], the “NTP formation in Huh-7 cells” value is given as 0.5 pmol / 10^6 cells.
In the case of `CC(C)OC(=O)[C@H](C)NP(=O)(OC[C@H]1O[C@@H](n2ccc(=O)[nH]c2=O)C(Cl)(Cl)[C@@H]1O)Oc1ccccc1` (some centres unmarked) [Compound 3], the EC50 in [1] (setting [19]) worked out at 0.4 ± 0.5 µM. For the same compound, the EC90 in data set [1] (setting [19]) amounted to 3.2 ± 2.7 µM. For the same compound, the CC50 in [2], in [3], in data set [4] and in [5] was more than 100 µM in each case. Besides, the “NTP formation in primary human hepatocytes” value in data set [7] stood at 622.0 pmol / 10^6 cells. The “NTP formation in Huh-7 cells” value in data set [6] is 39.7 pmol / 10^6 cells.
In the case of `O=c1ccn([C@@H]2O[C@H](CO)[C@@H](O)[C@]2(F)Cl)c(=O)[nH]1` [Compound 4], the EC50 in [1] (setting [19]) was more than 10 µM. Besides, the EC90 in data set [1] (setting [19]) is more than 10 µM. In addition, the CC50 in [2], in data set [3], in data set [4] and in data set [5] was more than 100 µM throughout. In [6], the “NTP formation in Huh-7 cells” value is 0.5 pmol / 10^6 cells.
`CC(C)OC(=O)[C@H](C)NP(=O)(OC[C@H]1O[C@@H](n2ccc(=O)[nH]c2=O)[C@@](F)(Cl)[C@@H]1O)Oc1ccccc1` (some centres unmarked) [Compound 5]: the figures for the EC50 in data set [8] and in [1] (setting [19]) were 0.5 ± 0.2 µM and 0.4 ± 0.2 µM, respectively. Further, the EC90 in data set [1] (setting [19]) was 6.5 ± 2.6 µM. Further, the CC50 in data set [2], in data set [3] and in data set [5] was more than 100 µM throughout. Further, the “Reduction of CPE in RD cell line” value in data set [9] was less than 2%. Besides, the “NTP formation in primary human hepatocytes” value in data set [7] amounted to 5245.0 pmol / 10^6 cells. For the same compound, the “NTP formation in Huh-7 cells” value in data set [6] came out at 866.2 pmol / 10^6 cells.
As for `O=c1ccn([C@@H]2O[C@H](CO)[C@@H](O)[C@@]2(F)Cl)c(=O)[nH]1` [Compound 6], the EC50 in [1] (setting [19]) is more than 10 µM. For the same compound, the EC90 in data set [1] (setting [19]) was more than 10 µM. Further, the CC50 in data set [2], in data set [3], in data set [4] and in data set [5] was more than 100 µM in each case.
For `CC(C)OC(=O)[C@H](C)NP(=O)(OC[C@H]1O[C@@H](n2ccc(=O)[nH]c2=O)[C@](F)(Cl)[C@@H]1O)Oc1ccccc1` (some centres unmarked) [Compound 7], the EC50 in [1] (setting [19]) was more than 10 µM. In addition, the concentration for an effect of 90% (EC90) in [1] (setting [19]) is more than 10 µM. Further, the CC50 in [2], in data set [3] and in [5] was more than 100 µM in each case.
On to `O=c1ccn([C@@H]2O[C@H](CO)[C@@H](O)[C@]2(F)Br)c(=O)[nH]1` [Compound 8], for which the EC50 in data set [1] (setting [19]) is more than 10 µM. Besides, the EC90 in [1] (setting [19]) was more than 10 µM. For the same compound, the CC50 in [2], in [3], in data set [4] and in [5] was more than 100 µM throughout.
What is called viability is a read-out of living cells in per cent, often relative to untreated cells. As for `CC(C)OC(=O)[C@H](C)N[P@](=O)(OC[C@H]1O[C@@H](n2ccc(=O)[nH]c2=O)[C@@](F)(Br)[C@@H]1O)Oc1ccccc1` [Compound 9], in data set [1] (setting [19]), the concentration giving a half-maximal response (EC50) turned out to be 0.85 µM and the EC90 was 7.8 ± 3.6 µM. Moreover, the EC50 in data set [1] amounted to 0.9 ± 0.8 µM. In addition, in [10], the “Immune cell infiltration into the liver” value was “significantly reduced”, the “Impact on total circulating leukocytes” value was “no adverse impact”, the “Impact on weight loss” value is on record as “no adverse impact” and the “Levels of serum transaminase (ALT)” value is “reduced”. Besides, in [10], the “Percentage of mice with absent inflammatory cell infiltration in the liver” value is reported as 25%, the “Percentage of mice with mild inflammatory cell infiltration in the liver” value was 50%, the “Percentage of mice with minimum inflammatory cell infiltration in the liver” value is recorded as 25% and the “YFV genome copy levels (virus load) in liver” value was “significant reduction”. The “NTP formed in Huh-7 cells” value in data set [11] is on record as 646 ± 107 pmol/10^6 cells. Also, the viability at 100 µM in [12] is 84.3 ± 0.9%. For the same compound, in [2], the CC50 is more than 100 µM. Moreover, the “NTP formed in primary hepatocytes” value in data set [13] is listed as 3206 ± 247 pmol/10^6 cells. The compound further had a CC50 in data set [3] of more than 100 µM. This compound also came in with a viability at 100 µM in [4] of 87.1%. Moreover, in data set [14], the “Cytotoxicity in MDM” value is on record as “no notable cytotoxicity up to 100 µM”. Moreover, in data set [5], the CC50 is more than 100 µM. Also, the EC50 in [15] turned out to be 3.2 µM. The EC50 in [16] is 0.4 ± 0.1 µM. In [16] (read-out: EC90, YFV replication in MDM), the EC90 came to 1.5 ± 0.6 µM.
Turning to `O=c1ccn([C@@H]2O[C@H](CO)[C@@H](O)[C@@]2(F)Br)c(=O)[nH]1` [Compound 10], the EC50 in data set [1] (setting [19]) was more than 10 µM. In data set [1] (setting [19]), the EC90 is more than 10 µM. In addition, the CC50 in data set [2], in data set [3], in [4] and in [5] was more than 100 µM throughout.
Regarding `CC(C)OC(=O)[C@H](C)NP(=O)(OC[C@H]1O[C@@H](n2ccc(=O)[nH]c2=O)[C@](F)(Br)[C@@H]1O)Oc1ccccc1` (some centres unmarked) [Compound 11], the EC50 in data set [1] (setting [19]) was more than 10 µM. The 90% effect concentration (EC90) in data set [1] (setting [19]) was more than 10 µM. For the same compound, the CC50 in [2], in data set [3] and in data set [5] was more than 100 µM in each case.
Consider `CC(C)OC(=O)[C@H](C)N[P@](=O)(OC[C@H]1O[C@@H](n2ccc(=O)[nH]c2=O)[C@](C)(F)[C@@H]1O)Oc1ccccc1` [Sofosbuvir, sofosbuvir, reference compound], for which the EC50 in data set [1] (setting [19]) came out at 0.6 ± 0.6 µM; in data set [16], 0.4 ± 0.3 µM. The EC90 in [1] (setting [19]) was found to be 3.5 ± 1.5 µM. Besides, the CC50 in [2] is more than 100 µM; in data set [3] it was more than 100 µM; in data set [4] it was less than 100 µM; in data set [5], more than 100 µM; in [18], 88.5 ± 11.6 µM. Besides, in data set [7], the “NTP formation in primary human hepatocytes” value came to 2230.0 pmol / 10^6 cells. In addition, the “Viral burden in sera, livers, kidneys and spleens” value in [17] is given as “failed to reduce viral burden”. In data set [6], the “NTP formation in Huh-7 cells” value was determined as 317.2 pmol / 10^6 cells.
